Measured values reported in patent US8598163B2, “Derivatives of [1,3]Oxazin-2-one useful for the treatment of metabolic diseases such as lipid disorders” (Vitae Pharmaceuticals, Inc., priority 2009, dated 2013).

Key:
[1] = biological target: T1, 11β-HSD1 (Homo sapiens (Human), UniProt P28845); details: comparator compounds; IC50 in Biological Test Example 4 divided by IC50 in Biological Test Example 1
Experimental: The assay began by dispensing 49 μl of microsome solution into 96-well polypropylene plates and adding 1 μl of the test compounds in DMSO, previously diluted in half-log increments (8 points) starting at 1.0 mM. […] The plates were incubated for 120 minutes at rt, and the reaction was quenched with the addition of 100 μl acetonitrile with 20 mM cortisone and 20 mM cortisol. After a ten minute incubation at rt, 100 μl of each well was filtered through a MultiScreen HTS, HV filter plate (Millipore) and diluted with 100 μl of reaction buffer without human plasma.

[2] = biological target: T1, 11β-HSD1; details: Biological Test 3, human liver microsomes, HTRF
Experimental: Briefly, compounds were incubated for 1 hour at 37° C. in Tris buffer (20 mM tris, 5 mM EDTA, pH 6.0) containing NADPH (200 μM) and cortisone (80 nM). Cortisol generated in the reaction is then detected with a competitive immunoassay, involving two HTRF conjugates: cortisol linked to XL665 and anti-cortisol antibody labeled with Europium cryptate. The incubation period for detection reaction was typically 2 hours. […] The ratio of the two emission signals was then calculated (Em665*10000/Em615). […] Each assay also contained a calibration curve with cortisol to transform the fluorescent data into cortisol concentrations. Percent inhibition of each compound was determined relative to the carbenoxolone signal.

T1 sequence (P28845 whole entry): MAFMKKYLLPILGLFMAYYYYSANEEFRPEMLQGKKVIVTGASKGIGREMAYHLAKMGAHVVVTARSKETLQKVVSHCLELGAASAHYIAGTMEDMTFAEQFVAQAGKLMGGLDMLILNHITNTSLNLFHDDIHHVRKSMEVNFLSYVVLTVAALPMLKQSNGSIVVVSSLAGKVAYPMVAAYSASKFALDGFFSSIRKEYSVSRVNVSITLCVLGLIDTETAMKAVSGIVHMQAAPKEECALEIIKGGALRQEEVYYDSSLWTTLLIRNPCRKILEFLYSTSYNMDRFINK

Row | SMILES | Shift [1] | IC50 [2]
1 | COc1nc2ccc(-c3ccc([C@H](C)N4CC[C@](CC(C)(C)O)(c5ccccc5)OC4=O)cc3)cn2n1 [Example 9, (S)-6-(2-Hydroxy-2-methyl-propyl)-3-{(S)-1-[4-(2-methoxy-[1,2,4]triazolo[1,5-a]pyridin-6-yl)-phenyl]-ethyl}-6-phenyl-[1,3]oxazinan-2-one] | 21.45 | 54 nM
2 | Cc1nc2cc(-c3ccc([C@H](C)N4CC[C@](CC(C)(C)O)(c5ccccc5)OC4=O)cc3)ccn2n1 [Example 7, (S)-6-(2-Hydroxy-2-methyl-propyl)-3-{(5)-1-[4-(2-methyl-[1,2,4]triazolopyridin-7-yl)-phenyl]-ethyl}-6-phenyl-[1,3]oxazinan-2-one] | 42.43 | 31 nM
